{"source": "patent US20220331353A1", "about": "“SYNERGISTIC COMPOSITIONS AND METHODS TO INCREASE VASCULAR NITRIC OXIDE TO TREAT ENDOTHELIAL DYSFUNCTION AND RELATED CONDITIONS” (Calroy Health Sciences, LLC, priority 2021, published 2022)", "assay": "Transdermal hydrogen sulfide on forearm after N-acetyl cysteine, Interscan Halimeter PLUS", "assay_type": "in vivo, human", "conditions": "600 mg oral; for Transdermal Hydrogen Sulfide H2S: adult male, forearm", "method": "We hypothesized that formula 2 sustained a higher level of bioavailable NO than formula 1 because N-acetyl cysteine generates hydrogen sulfide in the body. To test this hypothesis, we measured transdermal hydrogen sulfide on the surface of the forearm after an adult subject ingested 600 mg of N-acetyl cysteine. The test was performed using Interscan Halimeter® PLUS with a simple modification of sample collection method. Hydrogen sulfide, the primary volatile sulfur compounds detectable by the device, was measured in triplicate for 6 hours after dosing with N-acetyl cysteine (Table IV). […] The data support a mechanism wherein N-acetyl cysteine increases hydrogen sulfide production that boosts NO availability and activity in the body.", "data": [{"smiles": "CC(=O)N[C@@H](CS)C(=O)O", "note": "[N-acetyl cysteine]", "values": [{"measurement": "Transdermal Hydrogen Sulfide H2S", "setting": "0 h", "value": 16, "unit": "ppb"}, {"measurement": "Transdermal Hydrogen Sulfide H2S", "setting": "2 h", "value": 27, "unit": "ppb"}, {"measurement": "Transdermal Hydrogen Sulfide H2S", "setting": "3 h", "value": 46, "unit": "ppb"}, {"measurement": "Transdermal Hydrogen Sulfide H2S", "setting": "4 h", "value": 51, "unit": "ppb"}, {"measurement": "Transdermal Hydrogen Sulfide H2S", "setting": "5 h", "value": 40, "unit": "ppb"}, {"measurement": "Transdermal Hydrogen Sulfide H2S", "setting": "6 h", "value": 16, "unit": "ppb"}, {"measurement": "transdermal hydrogen sulfide", "setting": "peak at 4 hours", "value": 51, "unit": "ppb"}, {"measurement": "transdermal hydrogen sulfide", "setting": "starting value", "value": 16, "unit": "ppb"}, {"measurement": "transdermal hydrogen sulfide", "setting": "within 2 hours", "value": 27, "unit": "ppb"}]}]}
